The assay concerns the target HPK full length, T165E S171E (Homo sapiens (Human), UniProt Q92918, S171E/T165E). Description: HPK1-FL HTRF enzymatic assay ("HTRF"). The assay is classed as biochemical. To be noted: ATP 1 mM, read-out: HPK1 Ki. The procedure: Assay Principle: HPK-FL enzyme phosphorylates Biotin-SLP-76 substrate in the presence of ATP at […] and varying concentrations of test compound. Product is detected by FRET using Eu-anti-pSLP76 Ab and SA-XL665. Also see www.cisbio.com/HTRF for additional HTRF technology information.
Instrumentation: Echo555 compound dispenser; Agilent Bravo; Perkin Elmer Envision.
To a 384 well Proxiplate with 80 nL compound or DMSO spotted on was added 4 μl/well kinase mix. The mixture was preincubated for 30 minutes and then 4 μl/well substrate mix was added. The solution was incubated for 60 min and then 4 μl/well detection mix was added. The solution was incubated for another 60 min.
Exemplary compounds were tested in the HTRF binding assays.
For orientation: In TR-FRET formats the signal depends on donor and acceptor labels being close together.

The text below walks through data of patent publication US11612606B2, “8-aminoisoquinoline compounds and uses thereof” (priority 2018, dated 2023).

HPK full length, T165E S171E, sequence (Q92918 whole entry T165E/S171E, looked up): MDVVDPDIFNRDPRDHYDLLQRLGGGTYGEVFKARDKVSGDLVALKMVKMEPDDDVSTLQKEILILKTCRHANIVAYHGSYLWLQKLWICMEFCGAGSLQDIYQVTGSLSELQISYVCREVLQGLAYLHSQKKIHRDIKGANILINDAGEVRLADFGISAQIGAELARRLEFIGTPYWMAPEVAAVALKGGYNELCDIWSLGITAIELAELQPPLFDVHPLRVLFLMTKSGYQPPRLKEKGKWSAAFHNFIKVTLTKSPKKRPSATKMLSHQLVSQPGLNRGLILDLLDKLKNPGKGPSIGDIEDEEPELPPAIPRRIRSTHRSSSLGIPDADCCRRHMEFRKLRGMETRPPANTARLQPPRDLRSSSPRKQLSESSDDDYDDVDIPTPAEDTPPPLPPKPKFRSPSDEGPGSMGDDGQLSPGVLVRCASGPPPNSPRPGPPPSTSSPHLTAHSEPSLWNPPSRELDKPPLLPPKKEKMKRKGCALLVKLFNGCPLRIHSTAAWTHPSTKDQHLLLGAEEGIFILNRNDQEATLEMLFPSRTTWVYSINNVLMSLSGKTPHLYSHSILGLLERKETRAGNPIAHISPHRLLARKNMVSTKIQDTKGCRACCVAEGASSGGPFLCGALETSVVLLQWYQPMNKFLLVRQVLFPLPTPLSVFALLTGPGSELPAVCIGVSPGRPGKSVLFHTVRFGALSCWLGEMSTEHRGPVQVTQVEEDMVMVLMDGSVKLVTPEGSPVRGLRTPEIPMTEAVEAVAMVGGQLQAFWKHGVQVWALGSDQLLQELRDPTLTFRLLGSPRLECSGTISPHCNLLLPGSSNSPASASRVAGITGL

Consider `Cc1c(-c2cc3cc(NC(=O)OC4CCOC4)ncc3c(N)c2F)cnc2c1NCCO2` (racemic) [Compound 403, (±)-Tetrahydrofuran-3-yl (8-amino-7-fluoro-6-(8-methyl-2,3-dihydro-1H-pyrido[2,3-b][1,4]oxazin-7-yl)isoquinolin-3-yl)carbamate], for which the Ki (usually a dissociation constant, usually derived from enzyme kinetics or from competition with a known ligand) came to 0.023 nM.
Then `Cc1c(-c2cc3cc(NC(=O)O[C@@H]4COC[C@H]4C)ncc3c(N)c2F)cnc2c1NCCO2` (racemic) [Compound 441ab, (±)-trans-4-Methyltetrahydrofuran-3-yl (8-amino-7-fluoro-6-(8-methyl-2,3-dihydro-1H-pyrido[2,3-b][1,4]oxazin-7-yl)isoquinolin-3-yl)carbamate], with 0.037 nM; and `Cc1c(-c2cc3cc(NC(=O)O[C@@H]4CCO[C@H]4C)ncc3c(N)c2F)cnc2c1NCCO2` (racemic) [Compound 510a, (2S,3R)-2-methyltetrahydrofuran-3-yl (8-amino-7-fluoro-6-(8-methyl-2,3-dihydro-1H-pyrido[2,3-b][1,4]oxazin-7-yl)isoquinolin-3-yl)carbamate], with 0.395 nM.
Then `Cc1c(-c2cc3cc(NC(=O)O[C@@H]4CCOC4)ncc3c(N)c2F)cnc2c1NCC(CO)C2` (mixture of isomers) [Compound 581a, (R)-Tetrahydrofuran-3-yl (8-amino-7-fluoro-6-(7-(hydroxymethyl)-4-methyl-5,6,7,8-tetrahydro-1,5-naphthyridin-3-yl)isoquinolin-3-yl)carbamate], with 0.43 nM.
Then `Cc1c(-c2cc3cc(NC(=O)O[C@@H]4CCN(C5COC5)C[C@H]4F)ncc3c(N)c2F)cnc2c1NCCO2` (relative stereo) [Compound 445ab, (+1-)-trans-3-Fluoro-1-(oxetan-3-yl)piperidin-4-yl (8-amino-7-fluoro-6-(8-methyl-2,3-dihydro-1H-pyrido[2,3-b][1,4]oxazin-7-yl)isoquinolin-3-yl)carbamate], with < 0.013 nM; and `Cc1c(-c2cc3cc(NC(=O)O[C@H]4CO[C@]5(CCN(C)C5)C4)ncc3c(N)c2F)cnc2c1NCCO2` (relative stereo) [Compound 467b, (3R,5R)-7-Methyl-1-oxa-7-azaspiro[4.4]nonan-3-yl(8-amino-7-fluoro-6-(8-methyl-2,3-dihydro-1H-pyrido[2,3-b][1,4]oxazin-7-yl)isoquinolin-3-yl)carbamate], with 0.064 nM; and `Cc1c(-c2cc3cc(NC(=O)N[C@@H]4CC[C@H]4C#N)ncc3c(N)c2F)cnc2c1NCCO2` (relative stereo) [Compound 712ab, 1-(8-Amino-7-fluoro-6-(8-methyl-2,3-dihydro-1H-pyrido[2,3-b][1,4]oxazin-7-yl)isoquinolin-3-yl)-3-(trans-2-cyanocyclobutyl)urea], with < 0.013 nM.
Take `Cc1c(-c2cc3cc(NC(=O)N[C@H]4CCC[C@H]4O)ncc3c(N)c2F)cnc2c1NCCO2` (relative stereo) [Compound 728a, 1-[8-Amino-7-fluoro-6-(8-methyl-2,3-dihydro-1H-pyrido[2,3-b][1,4]oxazin-7-yl)-3-isoquinolyl]-3-[(1S,2R)-2-hydroxycyclopentyl]urea]: the Ki is < 0.013 nM.
In the case of `Cc1c(-c2cc3cc(NC(=O)O[C@@H]4CCNC4)ncc3c(N)c2F)cnc2c1NCCO2` (single isomer, unassigned) [Compound 405a], the Ki is 0.138 nM.
Regarding `Cc1c(-c2cc3cc(NC(=O)O[C@H]4CCNC4)ncc3c(N)c2F)cnc2c1NCCO2` (single isomer, unassigned) [Compound 405b], the Ki stood at 0.158 nM.
Then `Cc1c(-c2cc3cc(NC(=O)O[C@H]4CCCNC4)ncc3c(N)c2F)cnc2c1NCCO2` (single isomer, unassigned) [Compound 408a], with 0.089 nM.
Then `Cc1c(-c2cc3cc(NC(=O)O[C@@H]4CCCNC4)ncc3c(N)c2F)cnc2c1NCCO2` (single isomer, unassigned) [Compound 408b], with 0.069 nM.
Then `Cc1c(-c2cc3cc(NC(=O)O[C@H]4CC(=O)N(C)C4)ncc3c(N)c2F)cnc2c1NCCO2` (single isomer, unassigned) [Compound 410a], with 0.167 nM; and `Cc1c(-c2cc3cc(NC(=O)O[C@@H]4CC(=O)N(C)C4)ncc3c(N)c2F)cnc2c1NCCO2` (single isomer, unassigned) [Compound 410b], with 0.029 nM; and `Cc1c(-c2cc3cc(NC(=O)OC4CCOCC4)ncc3c(N)c2F)cnc2c1[C@@H](O)CCO2` (single isomer, unassigned) [Compound 412a], with 41 nM.
`Cc1c(-c2cc3cc(NC(=O)OC4CCOCC4)ncc3c(N)c2F)cnc2c1[C@H](O)CCO2` (single isomer, unassigned) [Compound 412b]: the Ki was 0.29 nM.
Under `CC(=O)N[C@H]1CCCC[C@@H]1OC(=O)Nc1cc2cc(-c3cnc4c(c3C)NCCO4)c(F)c(N)c2cn1` (single isomer, unassigned) [Compound 414a] stands 0.59 nM; under `CC(=O)N[C@@H]1CCCC[C@H]1OC(=O)Nc1cc2cc(-c3cnc4c(c3C)NCCO4)c(F)c(N)c2cn1` (single isomer, unassigned) [Compound 414b], 21 nM.
Under `CN[C@H]1CCCC[C@@H]1OC(=O)Nc1cc2cc(-c3cnc4c(c3C)NCCO4)c(F)c(N)c2cn1` (single isomer, unassigned) [Compound 415a] stands 3 nM; under `CN[C@@H]1CCCC[C@H]1OC(=O)Nc1cc2cc(-c3cnc4c(c3C)NCCO4)c(F)c(N)c2cn1` (single isomer, unassigned) [Compound 415b], 16 nM.
Then `CC(=O)N1CC[C@@H](OC(=O)Nc2cc3cc(-c4cnc5c(c4C)NCCO5)c(F)c(N)c3cn2)C1` (single isomer, unassigned) [Compound 418a], with < 0.013 nM; and `Cc1c(-c2cc3cc(NC(=O)OC4CCN(C)CC4F)ncc3c(N)c2F)cnc2c1NCCO2` (single isomer, unassigned) [Compound 433], with < 0.013 nM.
On to `CC(=O)N1CC[C@H](OC(=O)Nc2cc3cc(-c4cnc5c(c4C)NCCO5)c(F)c(N)c3cn2)[C@H](F)C1` (single isomer, unassigned) [Compound 437a], for which the inhibition constant (Ki) was < 0.013 nM.
Under `CC(=O)N1CC[C@@H](OC(=O)Nc2cc3cc(-c4cnc5c(c4C)NCCO5)c(F)c(N)c3cn2)[C@@H](F)C1` (single isomer, unassigned) [Compound 437b] stands 0.054 nM; under `Cc1c(-c2cc3cc(NC(=O)OC4C5COCC4CN(C)C5)ncc3c(N)c2F)cnc2c1NCCO2` (single isomer, unassigned) [Compound 439a], < 0.013 nM; under `Cc1c(-c2cc3cc(NC(=O)OC4C5COCC4CN(C)C5)ncc3c(N)c2F)cnc2c1NCCO2` (single isomer, unassigned) [Compound 439b], 0.48 nM.
As to `Cc1c(-c2cc3cc(NC(=O)O[C@H]4COCCN(C)C4)ncc3c(N)c2F)cnc2c1NCCO2` (single isomer, unassigned) [Compound 440a], the Ki came to 0.084 nM.
Under `Cc1c(-c2cc3cc(NC(=O)O[C@@H]4COCCN(C)C4)ncc3c(N)c2F)cnc2c1NCCO2` (single isomer, unassigned) [Compound 440b] stands 0.277 nM; under `Cc1c(-c2cc3cc(NC(=O)O[C@@H]4COC[C@H]4C)ncc3c(N)c2F)cnc2c1NCCO2` (single isomer, unassigned) [Compound 441a], < 0.013 nM; under `Cc1c(-c2cc3cc(NC(=O)O[C@H]4COC[C@H]4C)ncc3c(N)c2F)cnc2c1NCCO2` (single isomer, unassigned) [Compound 441c], 0.16 nM.
Under `Cc1c(-c2cc3cc(NC(=O)O[C@@H]4COC[C@@H]4C)ncc3c(N)c2F)cnc2c1NCCO2` (single isomer, unassigned) [Compound 441d] stands 0.32 nM; under `Cc1c(-c2cc3cc(NC(=O)O[C@H]4CN(C)C[C@H]4C)ncc3c(N)c2F)cnc2c1NCCO2` (single isomer, unassigned) [Compound 442b], 0.201 nM.
Then `Cc1c(-c2cc3cc(NC(=O)O[C@@H]4CN(C)C[C@H]4C)ncc3c(N)c2F)cnc2c1NCCO2` (single isomer, unassigned) [Compound 442c], with 0.154 nM; and `Cc1c(-c2cc3cc(NC(=O)O[C@H]4CN(C)C[C@@H]4C)ncc3c(N)c2F)cnc2c1NCCO2` (single isomer, unassigned) [Compound 442d], with 0.046 nM.
For `CCc1c(-c2cc3cc(NC(=O)O[C@@H]4CC(=O)N(C)C4)ncc3c(N)c2F)cnc2c1NCCO2` (single isomer, unassigned) [Compound 444a], the Ki was < 0.013 nM.
Then `CCc1c(-c2cc3cc(NC(=O)O[C@H]4CC(=O)N(C)C4)ncc3c(N)c2F)cnc2c1NCCO2` (single isomer, unassigned) [Compound 444b], with < 0.013 nM; and `Cc1c(-c2cc3cc(NC(=O)OC[C@@]4(F)CCN(C)C4)ncc3c(N)c2F)cnc2c1NCCO2` (single isomer, unassigned) [Compound 451a], with 0.14 nM.
Under `Cc1c(-c2cc3cc(NC(=O)OC[C@]4(F)CCN(C)C4)ncc3c(N)c2F)cnc2c1NCCO2` (single isomer, unassigned) [Compound 451b] stands < 0.013 nM.
As for `Cc1c(-c2cc3cc(NC(=O)O[C@@H]4CN(C)C[C@@H]4F)ncc3c(N)c2F)cnc2c1NCCO2` (single isomer, unassigned) [Compound 452d], the Ki was < 0.013 nM.
Consider `Cc1c(-c2cc3cc(NC(=O)OC4CCOCC4)ncc3c(N)c2F)cnc2c1NCC[C@H]2C` (single isomer, unassigned) [Compound 461a], for which the Ki is 0.891 nM.
Then `Cc1c(-c2cc3cc(NC(=O)OC4CCOCC4)ncc3c(N)c2F)cnc2c1NCC[C@@H]2C` (single isomer, unassigned) [Compound 461b], with 1.01 nM.
